Reference: patent US11000033B2, “Ketone or oxime compound, and herbicide” (NISSAN CHEMICAL CORPORATION, priority 2014, dated 2021)

Assays:
Assay type in all cases: in vivo
Abutilon theophrasti [1] = assay: Test Example 4: herbicidal effect by soil treatment (symbol M); details: 320 g/ha
Procedure, shortened: (§1)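 Seeds were sown in sterilized diluvial soil, covered with about 1.5 cm of soil, and the soil surface was sprayed with a water-diluted emulsion of the compound at a predetermined rate. Plants grew in a greenhouse at 25° C. to 30° C.; effects were scored visually 3 weeks after application.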

Setaria viridis = assay: Test Example 4: herbicidal effect by soil treatment (symbol G); details: 320 g/ha
Procedure, shortened: as §1

beet = assay: Test Example 4: effect on crop by soil treatment (symbol f); details: 320 g/ha
Procedure, shortened: (§2)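 Soil-treatment setup: crop and weed seeds were spot-sown into sterilized diluvial soil, then buried beneath approximately 1.5 cm of it, and the boxes were housed in a 25–30° C. greenhouse.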

Monochoria vaginalis = assay: Test Example 2: herbicidal activity, application during weed generation in submerged conditions (symbol C); details: Table 23; application herbicide amount 320 g/ha; grade 0-5 by criteria of Test Example 1
Procedure, shortened: (§3)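 Submerged alluvial soil (4 cm) sown with mixed seed; greenhouse 25–30° C. 1–2 leaf: diluted emulsion onto water surface, preset dose. Visual score, 3 wk.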

[2] = test system: Echinochloa crus-galli var. crus-galli; assay: Test Example 3: herbicidal effect by foliage application, Wagner pot (symbol H); details: application herbicide amount 320 g/ha
Procedure, shortened: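 Steps: fill pot with alluvial soil; add water to 0.1–0.5 cm depth; sow weed and rice seed; grow 14 days at 25–30 °C; spray diluted emulsion over the leaves; rate effect after 3 weeks.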

Stellaria media = assay: Test Example 5: herbicidal effect by foliage application, plastic box (symbol P); details: 320 g/ha, 3 weeks after application
Procedure, shortened: (§4)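 Post-emergence spray; diluvial soil (sterilized), ~1.5 cm seed cover; greenhouse 25–30° C; 14-day-old plants; water-diluted emulsion at predetermined dose; visual score at 3 wk post-treatment.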

Lolium multiflorum Lam. = assay: Test Example 4: herbicidal effect by soil treatment (symbol K); details: 320 g/ha
Procedure, shortened: as §1

Apera spica-venti [3] = assay: Test Example 4: herbicidal effect by soil treatment (symbol L); details: 320 g/ha
Procedure, shortened: as §1

rice plant = assay: Test Example 5: effect on crop by foliage application, plastic box (symbol b); details: 320 g/ha, 3 weeks after application
Procedure, shortened: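 In a plastic box 7 cm deep filled with sterilized diluvial soil, seeds of crops and weeds such as Digitaria ciliaris, Avena fatua and Amaranthus retroflexus are sown in spots and covered with about 1.5 cm of soil before greenhouse growth at 25–30° C.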

Avena fatua = assay: Test Example 5: herbicidal effect by foliage application, plastic box (symbol I); details: 320 g/ha, 3 weeks after application
Procedure, shortened: as §4

[4] = test system: Echinochloa oryzacola Vasing.; assay: Test Example 2: herbicidal activity, application during weed generation in submerged conditions (symbol A); details: Table 23; application herbicide amount 320 g/ha; grade 0-5 by criteria of Test Example 1
Procedure, shortened: as §3

Chenopodium album [5] = assay: Test Example 5: herbicidal effect by foliage application, plastic box (symbol O); details: 320 g/ha, 3 weeks after application
Procedure, shortened: as §4

Galium spurium = assay: Test Example 4: herbicidal effect by soil treatment (symbol Q); details: 320 g/ha
Procedure, shortened: as §1

Apera spica-venti [6] = assay: Test Example 5: herbicidal effect by foliage application, plastic box (symbol L); details: 320 g/ha, 3 weeks after application
Procedure, shortened: as §4

Veronica persica = assay: Test Example 5: herbicidal effect by foliage application, plastic box (symbol R); details: 320 g/ha, 3 weeks after application
Procedure, shortened: as §4

soybean = assay: Test Example 4: effect on crop by soil treatment (symbol d); details: 320 g/ha
Procedure, shortened: as §2

Digitaria ciliaris = assay: Test Example 4: herbicidal effect by soil treatment (symbol F); details: 320 g/ha
Procedure, shortened: as §1

Abutilon theophrasti [7] = assay: Test Example 5: herbicidal effect by foliage application, plastic box (symbol M); details: 320 g/ha, 3 weeks after application
Procedure, shortened: as §4

Chenopodium album [8] = assay: Test Example 4: herbicidal effect by soil treatment (symbol O); details: 320 g/ha
Procedure, shortened: as §1

Compound: CC(CC1CC(O)=C(c2c(C)cc(C)cc2C)C1=O)=NOCCS(C)(=O)=O (stereo not shown) [1-110]
- M: Abutilon theophrasti, herbicidal effect grade (Abutilon theophrasti [1]): 0 (Herbicidal ratio of 5% or lower (almost no effect))
- G: Setaria viridis, herbicidal effect grade (Setaria viridis): 5 (Herbicidal ratio of 90% or more (almost completely withered))
- f: beet, effect grade on crop (beet): 0 (Herbicidal ratio of 5% or lower (almost no effect))
- Herbicidal effect grade, C: Monochoria vaginalis (Monochoria vaginalis): 0 (Herbicidal ratio of 5% or lower (almost no effect))
- herbicidal effect on H (Echinochloa crus-galli var. crus-galli), grade 0-5 [2]: 5 (Herbicidal ratio of 90% or more (almost completely withered))
- P: Stellaria media, herbicidal effect (criteria 0-5) (Stellaria media): 3 (Herbicidal ratio of 40% or higher and lower than 70%)
- K: Lolium multiflorum Lam., herbicidal effect grade (Lolium multiflorum Lam.): 5 (Herbicidal ratio of 90% or more (almost completely withered))
- L: Apera spica-venti, herbicidal effect grade (Apera spica-venti [3]): 5 (Herbicidal ratio of 90% or more (almost completely withered))
- b: directly sowed rice plant, effect on crop (criteria 0-5) (rice plant): 5 (Herbicidal ratio of 90% or more (almost completely withered))
- I: Avena fatua, herbicidal effect (criteria 0-5) (Avena fatua): 5 (Herbicidal ratio of 90% or more (almost completely withered))
- Herbicidal effect grade, A: Echinochloa oryzacola Vasing. [4]: 2 (Herbicidal ratio of 20% or higher and lower than 40%)
- O: Chenopodium album, herbicidal effect (criteria 0-5) (Chenopodium album [5]): 2 (Herbicidal ratio of 20% or higher and lower than 40%)
- Q: Galium spurium, herbicidal effect grade (Galium spurium): 0 (Herbicidal ratio of 5% or lower (almost no effect))
- L: Apera spica-venti, herbicidal effect (criteria 0-5) (Apera spica-venti [6]): 5 (Herbicidal ratio of 90% or more (almost completely withered))
- R: Veronica persica, herbicidal effect (criteria 0-5) (Veronica persica): 3 (Herbicidal ratio of 40% or higher and lower than 70%)
- d: soybean, effect grade on crop (soybean): 0 (Herbicidal ratio of 5% or lower (almost no effect))
- F: Digitaria ciliaris, herbicidal effect grade (Digitaria ciliaris): 5 (Herbicidal ratio of 90% or more (almost completely withered))
- M: Abutilon theophrasti, herbicidal effect (criteria 0-5) (Abutilon theophrasti [7]): 0 (Herbicidal ratio of 5% or lower (almost no effect))
- O: Chenopodium album, herbicidal effect grade (Chenopodium album [8]): 0 (Herbicidal ratio of 5% or lower (almost no effect))

Compound: CC(CC1CC(O)=C(c2c(C)cc(C)cc2C)C1=O)=NOCC1OCCO1 (stereo not shown) [1-111]
- M: Abutilon theophrasti, herbicidal effect grade (Abutilon theophrasti [1]): 4 (Herbicidal ratio of 70% or higher and lower than 90%)
- G: Setaria viridis, herbicidal effect grade (Setaria viridis): 5 (Herbicidal ratio of 90% or more (almost completely withered))
- f: beet, effect grade on crop (beet): 0 (Herbicidal ratio of 5% or lower (almost no effect))
- Herbicidal effect grade, C: Monochoria vaginalis (Monochoria vaginalis): 0 (Herbicidal ratio of 5% or lower (almost no effect))
- herbicidal effect on H (Echinochloa crus-galli var. crus-galli), grade 0-5 [2]: 5 (Herbicidal ratio of 90% or more (almost completely withered))
- P: Stellaria media, herbicidal effect (criteria 0-5) (Stellaria media): 3 (Herbicidal ratio of 40% or higher and lower than 70%)
- K: Lolium multiflorum Lam., herbicidal effect grade (Lolium multiflorum Lam.): 5 (Herbicidal ratio of 90% or more (almost completely withered))
- L: Apera spica-venti, herbicidal effect grade (Apera spica-venti [3]): 5 (Herbicidal ratio of 90% or more (almost completely withered))
- b: directly sowed rice plant, effect on crop (criteria 0-5) (rice plant): 5 (Herbicidal ratio of 90% or more (almost completely withered))
- I: Avena fatua, herbicidal effect (criteria 0-5) (Avena fatua): 5 (Herbicidal ratio of 90% or more (almost completely withered))
- Herbicidal effect grade, A: Echinochloa oryzacola Vasing. [4]: 5 (Herbicidal ratio of 90% or more (almost completely withered))
- O: Chenopodium album, herbicidal effect (criteria 0-5) (Chenopodium album [5]): 1 (Herbicidal ratio of 5% or higher and lower than 20%)
- Q: Galium spurium, herbicidal effect grade (Galium spurium): 0 (Herbicidal ratio of 5% or lower (almost no effect))
- L: Apera spica-venti, herbicidal effect (criteria 0-5) (Apera spica-venti [6]): 5 (Herbicidal ratio of 90% or more (almost completely withered))
- R: Veronica persica, herbicidal effect (criteria 0-5) (Veronica persica): 1 (Herbicidal ratio of 5% or higher and lower than 20%)
- d: soybean, effect grade on crop (soybean): 1 (Herbicidal ratio of 5% or higher and lower than 20%)
- F: Digitaria ciliaris, herbicidal effect grade (Digitaria ciliaris): 5 (Herbicidal ratio of 90% or more (almost completely withered))
- M: Abutilon theophrasti, herbicidal effect (criteria 0-5) (Abutilon theophrasti [7]): 1 (Herbicidal ratio of 5% or higher and lower than 20%)
- O: Chenopodium album, herbicidal effect grade (Chenopodium album [8]): 0 (Herbicidal ratio of 5% or lower (almost no effect))

Compound: COc1ccc(CON=C(C)CC2CC(O)=C(c3c(C)cc(C)cc3C)C2=O)cc1 (stereo not shown) [1-112]
- M: Abutilon theophrasti, herbicidal effect grade (Abutilon theophrasti [1]): 0 (Herbicidal ratio of 5% or lower (almost no effect))
- G: Setaria viridis, herbicidal effect grade (Setaria viridis): 5 (Herbicidal ratio of 90% or more (almost completely withered))
- f: beet, effect grade on crop (beet): 0 (Herbicidal ratio of 5% or lower (almost no effect))
- Herbicidal effect grade, C: Monochoria vaginalis (Monochoria vaginalis): 4 (Herbicidal ratio of 70% or higher and lower than 90%)
- herbicidal effect on H (Echinochloa crus-galli var. crus-galli), grade 0-5 [2]: 5 (Herbicidal ratio of 90% or more (almost completely withered))
- P: Stellaria media, herbicidal effect (criteria 0-5) (Stellaria media): 1 (Herbicidal ratio of 5% or higher and lower than 20%)
- K: Lolium multiflorum Lam., herbicidal effect grade (Lolium multiflorum Lam.): 5 (Herbicidal ratio of 90% or more (almost completely withered))
- L: Apera spica-venti, herbicidal effect grade (Apera spica-venti [3]): 5 (Herbicidal ratio of 90% or more (almost completely withered))
- b: directly sowed rice plant, effect on crop (criteria 0-5) (rice plant): 5 (Herbicidal ratio of 90% or more (almost completely withered))
- I: Avena fatua, herbicidal effect (criteria 0-5) (Avena fatua): 5 (Herbicidal ratio of 90% or more (almost completely withered))
- Herbicidal effect grade, A: Echinochloa oryzacola Vasing. [4]: 4 (Herbicidal ratio of 70% or higher and lower than 90%)
- O: Chenopodium album, herbicidal effect (criteria 0-5) (Chenopodium album [5]): 3 (Herbicidal ratio of 40% or higher and lower than 70%)
- Q: Galium spurium, herbicidal effect grade (Galium spurium): 0 (Herbicidal ratio of 5% or lower (almost no effect))
- L: Apera spica-venti, herbicidal effect (criteria 0-5) (Apera spica-venti [6]): 5 (Herbicidal ratio of 90% or more (almost completely withered))
- R: Veronica persica, herbicidal effect (criteria 0-5) (Veronica persica): 3 (Herbicidal ratio of 40% or higher and lower than 70%)
- d: soybean, effect grade on crop (soybean): 0 (Herbicidal ratio of 5% or lower (almost no effect))
- F: Digitaria ciliaris, herbicidal effect grade (Digitaria ciliaris): 4 (Herbicidal ratio of 70% or higher and lower than 90%)
- M: Abutilon theophrasti, herbicidal effect (criteria 0-5) (Abutilon theophrasti [7]): 1 (Herbicidal ratio of 5% or higher and lower than 20%)
- O: Chenopodium album, herbicidal effect grade (Chenopodium album [8]): 0 (Herbicidal ratio of 5% or lower (almost no effect))

Compound: CC(CC1CC(O)=C(c2c(C)cc(C)cc2C)C1=O)=NOCc1cccc(Cl)c1 (stereo not shown) [1-114]
- M: Abutilon theophrasti, herbicidal effect grade (Abutilon theophrasti [1]): 0 (Herbicidal ratio of 5% or lower (almost no effect))
- G: Setaria viridis, herbicidal effect grade (Setaria viridis): 5 (Herbicidal ratio of 90% or more (almost completely withered))
- f: beet, effect grade on crop (beet): 0 (Herbicidal ratio of 5% or lower (almost no effect))
- Herbicidal effect grade, C: Monochoria vaginalis (Monochoria vaginalis): 4 (Herbicidal ratio of 70% or higher and lower than 90%)
- herbicidal effect on H (Echinochloa crus-galli var. crus-galli), grade 0-5 [2]: 5 (Herbicidal ratio of 90% or more (almost completely withered))
- P: Stellaria media, herbicidal effect (criteria 0-5) (Stellaria media): 3 (Herbicidal ratio of 40% or higher and lower than 70%)
- K: Lolium multiflorum Lam., herbicidal effect grade (Lolium multiflorum Lam.): 5 (Herbicidal ratio of 90% or more (almost completely withered))
- L: Apera spica-venti, herbicidal effect grade (Apera spica-venti [3]): 5 (Herbicidal ratio of 90% or more (almost completely withered))
- b: directly sowed rice plant, effect on crop (criteria 0-5) (rice plant): 5 (Herbicidal ratio of 90% or more (almost completely withered))
- I: Avena fatua, herbicidal effect (criteria 0-5) (Avena fatua): 5 (Herbicidal ratio of 90% or more (almost completely withered))
- Herbicidal effect grade, A: Echinochloa oryzacola Vasing. [4]: 4 (Herbicidal ratio of 70% or higher and lower than 90%)
- O: Chenopodium album, herbicidal effect (criteria 0-5) (Chenopodium album [5]): 3 (Herbicidal ratio of 40% or higher and lower than 70%)
- Q: Galium spurium, herbicidal effect grade (Galium spurium): 0 (Herbicidal ratio of 5% or lower (almost no effect))
- L: Apera spica-venti, herbicidal effect (criteria 0-5) (Apera spica-venti [6]): 5 (Herbicidal ratio of 90% or more (almost completely withered))
- R: Veronica persica, herbicidal effect (criteria 0-5) (Veronica persica): 2 (Herbicidal ratio of 20% or higher and lower than 40%)
- d: soybean, effect grade on crop (soybean): 0 (Herbicidal ratio of 5% or lower (almost no effect))
- F: Digitaria ciliaris, herbicidal effect grade (Digitaria ciliaris): 5 (Herbicidal ratio of 90% or more (almost completely withered))
- M: Abutilon theophrasti, herbicidal effect (criteria 0-5) (Abutilon theophrasti [7]): 1 (Herbicidal ratio of 5% or higher and lower than 20%)
- O: Chenopodium album, herbicidal effect grade (Chenopodium album [8]): 0 (Herbicidal ratio of 5% or lower (almost no effect))
